# Non-standard residues stand in square brackets, D forms with d. Primed or numbered codes have the meaning given here. No end group written: not given here. *: point of attachment. Myristoyl = CCCCCCCCCCCCCC(=O)*; PEG24′ = not defined here
# Test system: ApoB
# Assay: Knockdown of endogenous serum ApoB in mice after co-injection of masked melittin delivery peptide and ApoB siRNA-cholesterol conjugate
# Type: in vivo
# Experimental: RNAi polynucleotide conjugates and masked melittin peptides were synthesized as described above. Six to eight week old mice (strain C57BL/6 or ICR, ˜18-20 g each) were obtained from Harlan Sprague Dawley (Indianapolis Ind.). Mice were housed at least 2 days prior to injection. Feeding was performed ad libitum with Harlan Teklad Rodent Diet (Harlan, Madison Wis.). Mice were injected with 0.2 mL solution of delivery peptide and 0.2 mL siRNA conjugates into the tail vein. For simultaneous injection of delivery peptide and siRNA, the siRNA-conjugate was added to modified peptide prior to injection and the entire amount was injected. The composition was soluble and nonaggregating in physiological conditions. Solutions were injected by infusion into the tail vein.
# Mice were fasted for 4 h (16 h for rats) before serum collection by submandibular bleeding. For rats blood was collected from the jugular vein. Serum ApoB protein levels were determined by standard sandwich ELISA methods. Briefly, a polyclonal goat anti-mouse ApoB antibody and a rabbit anti-mouse ApoB antibody (Biodesign International) were used as capture and detection antibodies respectively. An HRP-conjugated goat anti-rabbit IgG antibody (Sigma) was applied afterwards to bind the ApoB/antibody complex. Absorbance of tetramethyl-benzidine (TMB, Sigma) colorimetric development was then measured by a Tecan Safire2 (Austria, Europe) microplate reader at 450 nm.
# Melittin was reversibly modified with CDM-NAG as described above. The indicated amount of melittin was then co-injected with the 200 μg ApoB siRNA-cholesterol conjugate. Effect on ApoB levels were determined as described above.
# Melittin was reversibly modified with CDM-NAG as described above. The indicated amount of melittin was then co-injected with 50 μg ApoB siRNA-cholesterol conjugate. Effect on ApoB levels were determined as described above.
# Melittin was reversibly modified with CDM-NAG (5×) as described above. The indicated amount of melittin was then co-injected with the indicated amount of ApoB siRNA-cholesterol conjugate. Effect on ApoB levels were determined as described above.
# Melittin was reversibly modified with the indicated amount of CDM-NAG as described above. 50 μg melittin was then co-injected with the 100 μg ApoB siRNA-cholesterol conjugate. Effect on ApoB levels were determined as described above.
# Melittin peptides having the indicated sequence were reversibly modified with CDM-NAG (5×) as described above. The indicated amount of melittin was then co-injected with the indicated amount of ApoB siRNA-cholesterol conjugate. Effect on ApoB levels were determined as described above.
# Melittin peptides containing the indicated PEG amino terminal modifications were synthesized as described above. The PEG amino terminal modified melittin peptides were then reversibly modified with 5×CDM-NAG as described above. The indicated amount of Melittin was then co-injected with the 100-200 μg ApoB siRNA-cholesterol conjugate. Effect on ApoB levels were determined as described above. Addition of PEG less than 5 kDa in size decreased toxicity of the melittin peptides.
# [1] = CDM-NAG (5×), 50 μg peptide per mouse, 100 μg siRNA per mouse
# [2] = CDM-NAG (5×), 100 μg peptide per mouse, 100 μg siRNA per mouse
# [3] = CDM-NAG (5×), 400 μg peptide per mouse, 100 μg siRNA per mouse
# [4] = CDM-NAG (5×), 80 μg peptide per mouse, 100 μg siRNA per mouse
# [5] = CDM-NAG (5×), 400 μg peptide per mouse, 200 μg siRNA per mouse
substance,measurement,setting,value
"T11G, T15G, S18G (Seq ID 39): melittin peptide derivative (GIGAILKVLACGLPGLIGWIKNKRKQ; melittin-like peptide derive from Apis florea)",percent knockdown,[1],32%
G1Y Mel-PLGIAGQC (Seq ID 66): melittin peptide derivative (YIGAILKVLATGLPTLISWIKNKRKQPLGIAGQC; C-terminal PLGIAGQC extension; melittin-like peptide derive from Apis florea),percent knockdown,[2],79%
"G1L retroMel-Stearoyl (Seq ID 74): melittin peptide derivative (QKRKNKIWSILTPLGTALVKLIAGIL; also: stearoyl, site not given here)",percent knockdown,[3],56%
"G1L, K7H (Seq ID 20): melittin peptide derivative (LIGAILHVLATGLPTLISWIKNKRKQ; melittin-like peptide derive from Apis florea)",percent knockdown,[2],97%
"G1L, I2L, 15L, I17L, I20L (Seq ID 43): melittin peptide derivative (LLGALLKVLATGLPTLLSWLKNKRKQ; melittin-like peptide derive from Apis florea)",percent knockdown,[3],96%
myristoyl-CKLK-Mel G1L (Seq ID 111): melittin peptide derivative (Myristoyl-CKLKLIGAILKVLATGLPTLISWIKNKRKQ),percent knockdown,[4],96%
Ac-CIGAVLKVLTTGLPALISWIKRKRQQ-NH2,percent knockdown,[5],85%
"G1L, T11C, S18C dMel (Seq ID 38): melittin peptide derivative ([dL][dI]G[dA][dI][dL][dK][dV][dL][dA][dC]G[dL][dP][dT][dL][dI][dC][dW][dI][dK][dN][dK][dR][dK][dQ]; cysteine pairing not given here)",percent knockdown,[2],88%
G12L (Seq ID 13): melittin peptide derivative (GIGAILKVLATLLPTLISWIKNKRKQ; melittin-like peptide derive from Apis florea),percent knockdown,[4],58%
"G1L, L5V, A10T, T15A Mel (1-23) (Seq ID 72): melittin peptide derivative",percent knockdown,[3],69%
G1C (Seq ID 3): melittin peptide derivative (CIGAILKVLATGLPTLISWIKNKRKQ; melittin-like peptide derive from Apis florea),percent knockdown,[2],37%
"QQRKRKIWSILAPLGTTLVKLVAGIC-(N-PDP-PE)-NH2 (not fully specified (some residues, C-terminus); also: D-amino acids, positions not given here) [PE = dioleolyl-phosphatidyl-ethanolamine]",percent knockdown,[5],55%
PEG24-GKLK-Mel G1L (Seq ID 59): melittin peptide derivative ([PEG24′]GKLKLIGAILKVLATGLPTLISWIKNKRKQ),percent knockdown,[1],85%
"Leu-Melittin (Seq ID 7) L form: G1L melittin peptide, L form amino acids (LIGAILKVLATGLPTLISWIKNKRKQ; melittin-like peptide derive from Apis florea)",% knockdown,"1× CDM-NAG, 100 μg siRNA, 50 μg peptide",74%
same,% knockdown,"2× CDM-NAG, 100 μg siRNA, 50 μg peptide",88%
same,% knockdown,"5× CDM-NAG, 50 μg siRNA, 25 μg peptide",15%
same,% knockdown,"5× CDM-NAG, 50 μg siRNA, 50 μg peptide",70%
same,% knockdown,"5× CDM-NAG, 50 μg siRNA, 100 μg peptide",90%
same,% knockdown,"5× CDM-NAG, 50 μg siRNA, 200 μg peptide",90%
same,% knockdown,"5× CDM-NAG, 50 μg siRNA, 400 μg peptide",90%
same,% knockdown,"5× CDM-NAG, 100 μg siRNA, 50 μg peptide",82%
same,percent knockdown,"5× CDM-NAG, no PEG modification, 25 μg peptide, 100 μg siRNA",0%
same,percent knockdown,"5× CDM-NAG, no PEG modification, 50 μg peptide, 100 μg siRNA",72%
same,percent knockdown,"5× CDM-NAG, no PEG modification, 100 μg peptide, 100 μg siRNA",94%
Mel-Cys (Seq ID 62): melittin peptide derivative (GIGAILKVLATGLPTLISWIKNKRKQC; C-terminal Cys; melittin-like peptide derive from Apis florea),percent knockdown,[3],83%
"G1L, Mel-KKKKK (Seq ID 67): melittin peptide derivative (LIGAILKVLATGLPTLISWIKNKRKQKKKKK; C-terminal KKKKK extension; melittin-like peptide derive from Apis florea)",percent knockdown,[3],96%
"G1L, L5V, A10T, T15A, N22G, K23E dMel (1-23) (Seq ID 73): melittin peptide derivative",percent knockdown,[3],92%
"G1L, I2V, I5V, I17V, I20V (Seq ID 45): melittin peptide derivative (LVGAVLKVLATGLPTLVSWVKNKRKQ; melittin-like peptide derive from Apis florea)",percent knockdown,[2],24%
"T11A, T15A, S18A (Seq ID 40): melittin peptide derivative (GIGAILKVLACGLPALIAWIKNKRKQ; melittin-like peptide derive from Apis florea)",percent knockdown,[1],38%
Acetyl-dMel-NH2 (Seq ID 107): melittin peptide derivative (Ac-G[dI]G[dA][dI][dL][dK][dV][dL][dA][dT]G[dL][dP][dT][dL][dI][dS][dW][dI][dK][dN][dK][dR][dK][dQ]-NH2; SMILES CC[C@@H](C)[C@@H](NC(=O)CNC(C)=O)C(=O)NCC(=O)N[C@H](C)C(=O)N[C@@H](C(=O)N[C@H](CC(C)C)C(=O)N[C@H](CCCCN)C(=O)N[C@@H](C(=O)N[C@H](CC(C)C)C(=O)N[C@H](C)C(=O)N[C@@H](C(=O)NCC(=O)N[C@H](CC(C)C)C(=O)N1CCC[C@@H]1C(=O)N[C@@H](C(=O)N[C@H](CC(C)C)C(=O)N[C@@H](C(=O)N[C@H](CO)C(=O)N[C@H](Cc1c[nH]c2ccccc12)C(=O)N[C@@H](C(=O)N[C@H](CCCCN)C(=O)N[C@H](CC(N)=O)C(=O)N[C@H](CCCCN)C(=O)N[C@H](CCCNC(=N)N)C(=O)N[C@H](CCCCN)C(=O)N[C@H](CCC(N)=O)C(N)=O)[C@H](C)CC)[C@H](C)CC)[C@H](C)O)[C@H](C)O)C(C)C)[C@H](C)CC),percent knockdown,[2],89%
QQRKRKIWSILAPLGTTLVKLVAGIC-NH2 [Seq ID 92],percent knockdown,"CDM-NAG (5×), amount in column 'siRNA' 400 μg",85%
same,percent knockdown,"CDM-NAG (5×), siRNA 20 mg/kg",94%
CFK-G1L dMel-C (Seq ID 69): melittin peptide derivative (CFKLIGAILKVLATGLPTLISWIKNKRKQC; not fully specified (some residues); cysteine pairing not given here),percent knockdown,[2],79%
G1Y dMel-GFKGC (Seq ID 68): melittin peptide derivative ([dY][dI]G[dA][dI][dL][dK][dV][dL][dA][dT]G[dL][dP][dT][dL][dI][dS][dW][dI][dK][dN][dK][dR][dK][dQ]GFKGC),percent knockdown,[3],96%
G1L Mel-Cys (Seq ID 63): melittin peptide derivative (LIGAILKVLATGLPTLISWIKNKRKQC; C-terminal cysteine; melittin-like peptide derive from Apis florea),percent knockdown,[3],82%
G1L dMel-C (Seq ID 114): melittin peptide derivative ([dL][dI]G[dA][dI][dL][dK][dV][dL][dA][dT]G[dL][dP][dT][dL][dI][dS][dW][dI][dK][dN][dK][dR][dK][dQ]C),percent knockdown,[1],93%
Dimethyl G-Mel G1L (Seq ID 53): melittin peptide derivative (dimethyl-GLIGAILKVLATGLPTLISWIKNKRKQ),percent knockdown,[2],91%
"G1L, T15C dMel (Seq ID 24): melittin peptide derivative ([dL][dI]G[dA][dI][dL][dK][dV][dL][dA][dT]G[dL][dP][dC][dL][dI][dS][dW][dI][dK][dN][dK][dR][dK][dQ])",percent knockdown,[2],95%

# From patent publication US9526796B2, “Peptide-based in vivo siRNA delivery system” (priority 2010, dated 2016)
